The record followed here is US10577373B2, “TYK2 inhibitors and uses thereof” (Nimbus Lakshmi, Inc., priority 2017, dated 2020).

The experiment relates to IL-12 induced STAT4 phophorylation mediated by Tyk2/JAK2 (heterodimeric complex). The experiment is described as follows: IL-12 Induced pSTAT4 in Human PBMC. The experiment is classed as cell-based. The settings on record: 1.7 ng/mL IL-12. An excerpt: The IL-12 Induced pSTAT4 assay evaluates the inhibition of IL-12 induced STAT4 phophorylation mediated by Tyk2/JAK2 (heterodimeric complex).
Turning to `CNc1cc(-c2cn(C3CC3)c3ncccc23)nc2c(C(=O)N[C@H]3CC[C@@H]3OC)cnn12` [I-1325], the IC50 – broadly, the midpoint of a concentration-inhibition curve – is less than 100 nM.

`CNc1cc(Nc2cccn([C@H]3CC[C@@](C)(O)CC3)c2=O)nc2c(C(=O)N[C@H]3C[C@H]3F)cnn12` [I-370]: the IC50 was less than 100 nM.

The molecule `CNc1cc(Nc2cccn([C@@H]3CCCN(CCF)C3)c2=O)nc2c(C(=O)N[C@H]3CC[C@@H]3OC)cnn12` [I-1382] displayed an IC50 of less than 100 nM.

In turn, `CNc1cc(Nc2cccn([C@H]3CCC[C@@H](OC)C3)c2=O)nc2c(C(=O)NCC(C)(C)CO)cnn12` [I-861] showed an IC50 of less than 100 nM.

In the case of `CNc1cc(-c2cn([C@@H]3CCN(CCF)C3)c3ncccc23)nc2c(C(=O)N[C@@H]3C[C@@H]3F)cnn12` [I-1366], the IC50 was less than 100 nM.

`CNc1cc(Nc2cccn([C@H]3CCC[C@H]3O)c2=O)nc2c(C(=O)N[C@H]3CC[C@@H]3OC)cnn12` [I-1373] displayed a half-maximal inhibitory concentration (IC50) of less than 100 nM.

Consider `CNc1cc(Nc2cccn([C@@H]3CCCOC3)c2=O)nc2c(C(=O)NC3CC3)cnn12` [I-351], for which the IC50 is less than 100 nM.

In the case of `CNc1cc(Nc2cccn(-c3nn(C)cc3F)c2=O)nc2c(C(=O)N[C@@H]3C[C@@H]3F)cnn12` [I-1321], the IC50 is less than 100 nM.

For `CNc1cc(Nc2cccn([C@@H]3CC[C@@H]3O)c2=O)nc2c(C(=O)N[C@H]3CC[C@@H]3OC)cnn12` [I-1411], the IC50 is less than 100 nM.

Consider `CNc1cc(Nc2cccn(-c3nn(C)cc3C)c2=O)nc2c(C(=O)N[C@H]3C[C@H]3F)cnn12` [I-405], for which the half-maximal inhibitory concentration (IC50) is 100 to 500 nM.

Take `CNc1cc(Nc2cccn([C@H]3CC[C@](C)(O)CC3)c2=O)nc2c(C(=O)NC3CC3)cnn12` [I-371]: the IC50 lay within 100 to 500 nM.

With `CNc1cc(Nc2cccn(-c3ncccc3F)c2=O)nc2c(C(=O)O)cnn12` [I-893, 5-((3′-fluoro-2-oxo-2H-[1,2′-bipyridin]-3-yl)amino)-7-(methylamino) pyrazolo[1,5-a]pyrimidine-3-carboxylic acid], the IC50 was greater than 1000 nM.

With `CNc1cc(Nc2cccn([C@H]3CCC[C@@H](O)C3)c2=O)nc2c(C(=O)N[C@H]3CC[C@@H]3OC)cnn12` [I-1296], the IC50 is less than 100 nM.

On to `CNc1cc(Nc2cccn(C3CC(F)(F)C3)c2=O)nc2c(C(=O)N[C@H]3CC[C@@H]3OC)cnn12` [I-1389], for which the IC50 was less than 100 nM.

Consider `CNc1cc(-c2cn(CCCO)c3ncccc23)nc2c(C(=O)N[C@@H]3CC[C@H]3OC)cnn12` [I-1299], for which the IC50 was less than 100 nM.

In turn, `CNc1cc(Nc2cccn([C@H]3CCCC[C@H]3OC)c2=O)nc2c(C(=O)N[C@H]3CC[C@@H]3OC)cnn12` [I-1377] registered an IC50 of less than 100 nM.

On to `CNc1cc(-c2cn(C3CCOCC3)c3ncccc23)nc2c(C(=O)N[C@@H]3CC[C@H]3OC)cnn12` [I-1328], for which the IC50 was less than 100 nM.

Turning to `CNc1cc(Nc2cccn(-c3cnn(C)c3F)c2=O)nc2c(C(=O)N[C@H]3CC[C@@H]3OC)cnn12` [I-1369], the half-inhibitory concentration (IC50) is less than 100 nM.

Molecule `CNc1cc(Nc2cccn([C@@H]3CCN(CCF)C3)c2=O)nc2c(C(=O)N[C@@H]3CC[C@H]3OC)cnn12` [I-1333] came in with an IC50 of less than 100 nM.

Take `CNC(=O)c1occc1Nc1cc(NC)n2ncc(C(=O)N[C@H]3CC[C@@H]3OC)c2n1` [I-1323]: the IC50 is less than 100 nM.

Molecule `CNc1cc(-c2cn([C@H]3CCCOC3)c3ncccc23)nc2c(C(=O)N[C@H]3CC[C@@H]3OC)cnn12` [I-1365] registered an IC50 of less than 100 nM.

As to `CNc1cc(Nc2cccn([C@@H]3CC[C@H]3O)c2=O)nc2c(C(=O)N[C@@H]3CC[C@H]3OC)cnn12` [I-1309], the IC50 was less than 100 nM.

`CNc1cc(Nc2cccn([C@@H]3CC[C@@H]3O)c2=O)nc2c(C(=O)N[C@@H]3CC[C@H]3OC)cnn12` [I-1350]: the IC50 is less than 100 nM.

`CNc1cc(-c2cn([C@@H]3CCCOC3)c3ncccc23)nc2c(C(=O)N[C@H]3CC[C@@H]3OC)cnn12` [I-1364] came in with an IC50 of less than 100 nM.

`CNc1cc(Nc2cccn3ccnc23)nc2c(C(=O)N[C@@H]3CC[C@H]3OC)cnn12` [I-1133] showed an IC50 of less than 100 nM.
